Numbered stars: 1 amine (or outer) side, 2 acyl side, 3 side chain; on linkers, the order of the positions; unused ones are H or OH. Bridge positions count the residues as written; N and C are the ends. Square brackets hold non-standard residues; d marks the D form. Side chains are listed from the residue outwards. Peptide text beside a SMILES is read from it. * marks the point of attachment. X10 = C[N+](C)(CCNC(=O)CCOCCOCCOCCOCCOCCOCCOCCOCCNC(=O)CN1CCN(CC(=O)O)CCN(CC(=O)O)CCN(CC(=O)O)CC1)CC(=O)*; DOTA = O=C(O)CN1CCN(CC(=O)O)CCN(CC(=O)*)CCN(CC(=O)O)CC1; PEG8 = NCCOCCOCCOCCOCCOCCOCCOCCOCCC(=O)O; X6 = C[C@@H]1CN([*:1])[C@@H]1C(=O)[*:2]; γGlu = O=C(O)[C@H](CCC(=O)[*:2])N[*:1]; 2Nal = N[C@@H](Cc1ccc2ccccc2c1)C(=O)O; X8 = CC1(C)CN([*:1])[C@@H]1C(=O)[*:2]; X12 = C[N+](C)(CCN[*:1])CC(=O)[*:2]; X7 = C[C@@]1(C(=O)[*:2])CCN1[*:1]
What follows are molecules tested against T1, human DLL3 (Homo sapiens, UniProt Q9NYJ7) (assay: Affinity determination by Surface Plasmon Resonance (SPR)). Details: not given.
T1 sequence (Q9NYJ7 27-618): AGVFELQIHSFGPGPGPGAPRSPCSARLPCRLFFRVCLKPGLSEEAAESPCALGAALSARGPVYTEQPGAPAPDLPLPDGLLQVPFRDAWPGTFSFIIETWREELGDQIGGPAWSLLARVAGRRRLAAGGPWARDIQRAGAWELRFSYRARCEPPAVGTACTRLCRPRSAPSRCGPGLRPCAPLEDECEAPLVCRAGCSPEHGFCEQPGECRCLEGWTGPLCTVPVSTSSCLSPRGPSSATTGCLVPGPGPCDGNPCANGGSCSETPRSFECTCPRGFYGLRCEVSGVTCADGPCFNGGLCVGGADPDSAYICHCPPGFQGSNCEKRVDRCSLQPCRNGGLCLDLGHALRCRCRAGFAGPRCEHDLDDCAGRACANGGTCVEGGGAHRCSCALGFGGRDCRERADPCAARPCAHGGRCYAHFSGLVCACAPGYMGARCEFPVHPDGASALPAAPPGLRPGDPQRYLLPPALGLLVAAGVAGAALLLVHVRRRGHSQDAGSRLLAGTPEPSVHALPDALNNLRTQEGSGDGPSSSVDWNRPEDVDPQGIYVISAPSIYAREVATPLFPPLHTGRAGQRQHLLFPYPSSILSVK
Format: binding
How it was run: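 Biotinylated human DLL3 was captured on a streptavidin chip with a reference surface. Compounds at several concentrations were injected at 100 μL/minute in phosphate buffer (137 mM NaCl, 2.7 mM KCl, 0.05% P20, 2% DMSO). Affinity and kinetics came from 1:1 model fits of the sensorgrams.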

SMILES	Kd
CC[C@H](C)[C@H](NC(=O)[C@@H](NC(=O)[C@H](Cc1c[nH]c2ccccc12)NC(C)=O)[C@@H](C)O)C(=O)N[C@H]1CSSC[C@@H](C(=O)N[C@@H](Cc2c[nH]c3ccccc23)C(=O)N2CCC[C@H]2C(=O)N[C@H](CCCCNC(=O)C[N+](C)(C)CCNC(=O)CCOCCOCCOCCOCCOCCOCCOCCOCCNC(=O)CN2CCN(CC(=O)O)CCN(CC(=O)O)CCN(CC(=O)O)CC2)C(N)=O)NC(=O)[C@H](CC(=O)O)NC(=O)[C@H](Cc2c[nH]cn2)NC(=O)[C@H](Cc2ccc3ccccc3c2)NC(=O)[C@H](CC(N)=O)NC(=O)[C@H](CC(N)=O)NC1=O [compound 363, Ac-W-T-I-C(3)-N-N-(2Nal)-H-D-C(3)-W-P-[D-Lys(SP6-PEG8-DOTA)]-NH2] (Ac-WTICNN[2Nal]HDCWP[dK](X10)-NH2; disulfide 4-10)	< 1 nM

Same assay, conditions: 25° C., biotinylated human DLL3 immobilized on streptavidin sensor chip, 1:1 binding model; read-out: SPR KD

Kd	SMILES
< 1 nM	CC[C@H](C)[C@H](NC(=O)[C@@H](NC(=O)[C@H](Cc1c[nH]c2ccccc12)NC(C)=O)[C@@H](C)O)C(=O)N[C@H]1CSSC[C@@H](C(=O)N[C@@H](Cc2c[nH]c3ccccc23)C(=O)N2CCC[C@H]2C(=O)N[C@H](CCCCNC(=O)CC[C@H](NC(=O)CC[C@H](NC(=O)CC[C@H](NC(=O)CN2CCN(CC(=O)O)CCN(CC(=O)O)CCN(CC(=O)O)CC2)C(=O)O)C(=O)O)C(=O)O)C(N)=O)NC(=O)[C@H](CC(=O)O)NC(=O)[C@H](Cc2cnc[nH]2)NC(=O)[C@H](Cc2ccc3ccccc3c2)NC(=O)[C@H](CC(N)=O)NC(=O)[C@H](CC(N)=O)NC1=O [compound 355, Ac-W-T-I-C(3)-N-N-(2Nal)-H-D-C(3)-W-P-[D-Lys(gE-gE-gE-DOTA)]-NH2] (Ac-WTICNN[2Nal]HDCWP[dK]([γGlu-γGlu-γGlu-DOTA])-NH2; disulfide 4-10)
< 1 nM	CC[C@H](C)[C@H](NC(=O)[C@@H](NC(=O)[C@H](Cc1c[nH]c2ccccc12)NC(C)=O)[C@@H](C)O)C(=O)N[C@H]1CSSC[C@@H](C(=O)N[C@@H](Cc2c[nH]c3ccccc23)C(=O)N2CCC[C@H]2C(=O)N[C@H](CCCCNC(=O)[C@H]2CCCN2C(=O)CCOCCOCCOCCOCCOCCOCCOCCOCCNC(=O)CN2CCN(CC(=O)O)CCN(CC(=O)O)CCN(CC(=O)O)CC2)C(N)=O)NC(=O)[C@H](CC(=O)O)NC(=O)[C@H](Cc2cnc[nH]2)NC(=O)[C@H](Cc2ccc3ccccc3c2)NC(=O)[C@H](CC(N)=O)NC(=O)[C@H](CC(N)=O)NC1=O [compound 356, Ac-W-T-I-C(3)-N-N-(2Nal)-H-D-C(3)-W-P-[D-Lys((D-Pro)-PEG8-DOTA)]-NH2] (Ac-WTICNN[2Nal]HDCWP[dK]([dP-PEG8-DOTA])-NH2; disulfide 4-10)
< 1 nM	CC[C@H](C)[C@H](NC(=O)[C@@H](NC(=O)[C@H](Cc1c[nH]c2ccccc12)NC(C)=O)[C@@H](C)O)C(=O)N[C@H]1CSSC[C@@H](C(=O)N[C@@H](Cc2c[nH]c3ccccc23)C(=O)N2CCC[C@H]2C(=O)N2CCC[C@@H]2C(=O)N2CCC[C@@H]2C(=O)N2CCC[C@@H]2C(=O)NCCOCCOCCOCCOCCOCCOCCOCCOCCC(=O)N[C@H](CCCCNC(=O)CN2CCN(CC(=O)O)CCN(CC(=O)O)CCN(CC(=O)O)CC2)C(N)=O)NC(=O)[C@H](CC(=O)O)NC(=O)[C@H](Cc2c[nH]cn2)NC(=O)[C@H](Cc2ccc3ccccc3c2)NC(=O)[C@H](CC(N)=O)NC(=O)[C@H](CC(N)=O)NC1=O [compound 357, Ac-W-T-I-C(3)-N-N-(2Nal)-H-D-C(3)-W-P-(D-Pro)3-PEG8-[D-Lys(DOTA)]-NH2] (Ac-WTICNN[2Nal]HDCWP[dP][dP][dP][PEG8][dK](DOTA)-NH2; disulfide 4-10)
< 1 nM	CC[C@H](C)[C@H](NC(=O)[C@@H](NC(=O)[C@H](Cc1c[nH]c2ccccc12)NC(C)=O)[C@@H](C)O)C(=O)N[C@H]1CSSC[C@@H](C(=O)N[C@@H](Cc2c[nH]c3ccccc23)C(=O)N2CCC[C@H]2C(=O)N[C@H](CCCCNC(=O)[C@H]2CCCN2C(=O)[C@H]2CCCN2C(=O)[C@H]2CCCN2C(=O)CCOCCOCCOCCOCCOCCOCCOCCOCCNC(=O)CN2CCN(CC(=O)O)CCN(CC(=O)O)CCN(CC(=O)O)CC2)C(N)=O)NC(=O)[C@H](CC(=O)O)NC(=O)[C@H](Cc2c[nH]cn2)NC(=O)[C@H](Cc2ccc3ccccc3c2)NC(=O)[C@H](CC(N)=O)NC(=O)[C@H](CC(N)=O)NC1=O [compound 358, Ac-W-T-I-C(3)-N-N-(2Nal)-H-D-C(3)-W-P-[D-Lys((D-Pro)3-PEG8-DOTA)]-NH2] (Ac-WTICNN[2Nal]HDCWP[dK]([dP-dP-dP-PEG8-DOTA])-NH2; disulfide 4-10)
< 1 nM	CC[C@H](C)[C@H](NC(=O)[C@@H](NC(=O)[C@H](Cc1c[nH]c2ccccc12)NC(C)=O)[C@@H](C)O)C(=O)N[C@H]1CSSC[C@@H](C(=O)N[C@@H](Cc2c[nH]c3ccccc23)C(=O)N2C[C@@H](C)[C@H]2C(=O)N[C@H](CCCCNC(=O)CN2CCN(CC(=O)O)CCN(CC(=O)O)CCN(CC(=O)O)CC2)C(N)=O)NC(=O)[C@H](CC(=O)O)NC(=O)[C@H](Cc2c[nH]cn2)NC(=O)[C@H](Cc2ccc3ccccc3c2)NC(=O)[C@H](CC(N)=O)NC(=O)[C@H](CC(N)=O)NC1=O [compound 359, Ac-W-T-I-C(3)-N-N-(2Nal)-H-D-C(3)-W-R-3Me-Aze-[D-Lys(DOTA)]-NH2] (Ac-WTICNN[2Nal]HDCW[X6][dK](DOTA)-NH2; disulfide 4-10)
< 1 nM	CC[C@H](C)[C@H](NC(=O)[C@@H](NC(=O)[C@H](Cc1c[nH]c2ccccc12)NC(C)=O)[C@@H](C)O)C(=O)N[C@H]1CSSC[C@@H](C(=O)N[C@@H](Cc2c[nH]c3ccccc23)C(=O)N2CC[C@@]2(C)C(=O)N[C@H](CCCCNC(=O)CN2CCN(CC(=O)O)CCN(CC(=O)O)CCN(CC(=O)O)CC2)C(N)=O)NC(=O)[C@H](CC(=O)O)NC(=O)[C@H](Cc2c[nH]cn2)NC(=O)[C@H](Cc2ccc3ccccc3c2)NC(=O)[C@H](CC(N)=O)NC(=O)[C@H](CC(N)=O)NC1=O [compound 360, Ac-W-T-I-C(3)-N-N-(2Nal)-H-D-C(3)-W-aMe-Aze-[D-Lys(DOTA)]-NH2] (Ac-WTICNN[2Nal]HDCW[X7][dK](DOTA)-NH2; disulfide 4-10)
< 1 nM	CC[C@H](C)[C@H](NC(=O)[C@@H](NC(=O)[C@H](Cc1c[nH]c2ccccc12)NC(C)=O)[C@@H](C)O)C(=O)N[C@H]1CSSC[C@@H](C(=O)N[C@@H](Cc2c[nH]c3ccccc23)C(=O)N2CC(C)(C)[C@H]2C(=O)N[C@H](CCCCNC(=O)CN2CCN(CC(=O)O)CCN(CC(=O)O)CCN(CC(=O)O)CC2)C(N)=O)NC(=O)[C@H](CC(=O)O)NC(=O)[C@H](Cc2c[nH]cn2)NC(=O)[C@H](Cc2ccc3ccccc3c2)NC(=O)[C@H](CC(N)=O)NC(=O)[C@H](CC(N)=O)NC1=O [compound 362, Ac-W-T-I-C(3)-N-N-(2Nal)-H-D-C(3)-W-3Me2-Aze-[D-Lys(DOTA)]-NH2] (Ac-WTICNN[2Nal]HDCW[X8][dK](DOTA)-NH2; disulfide 4-10)
< 1 nM	CC[C@H](C)[C@H](NC(=O)[C@@H](NC(=O)[C@H](Cc1c[nH]c2ccccc12)NC(C)=O)[C@@H](C)O)C(=O)N[C@H]1CSSC[C@@H](C(=O)N[C@@H](Cc2c[nH]c3ccccc23)C(=O)N2CCC[C@H]2C(=O)NCC[N+](C)(C)CC(=O)NCCOCCOCCOCCOCCOCCOCCOCCOCCC(=O)N[C@H](CCCCNC(=O)CN2CCN(CC(=O)O)CCN(CC(=O)O)CCN(CC(=O)O)CC2)C(N)=O)NC(=O)[C@H](CC(=O)O)NC(=O)[C@H](Cc2c[nH]cn2)NC(=O)[C@H](Cc2ccc3ccccc3c2)NC(=O)[C@H](CC(N)=O)NC(=O)[C@H](CC(N)=O)NC1=O [compound 364, Ac-W-T-I-C(3)-N-N-(2Nal)-H-D-C(3)-W-P-SP6-PEG8-[D-Lys(DOTA)]-NH2] (Ac-WTICNN[2Nal]HDCWP[X12][PEG8][dK](DOTA)-NH2; disulfide 4-10)

Source: patent US20250011368A1, “DLL3 TARGETING PEPTIDES AND CONSTRUCTS THEREOF” (MARIANA ONCOLOGY INC., priority 2023, published 2025)
